According to patent publication US10907159B2, “Methods of treating cancer by inhibition of DNA repair proteins using antisense based therapies” (SARISSA INC., priority 2015, dated 2021):

Experiments:
[1] = tested on: MDA-MB-231 cells; assay: Cell proliferation assay, ASO transfection then drug (cell counting); format: cell-based, human; settings: FIG. 49
Procedure: Four hours post-transfection, cells were seeded into 6 well dishes in appropriate experimental groups. […] Ninety-six hours post transfection, cells were collected and counted (Coulter Particle Counter). Proliferation was determined based on initial cell density and calculated as a percentage of ASO+vehicle treated cells.

[2] = tested on: A549b cells; assay: cells; format: cell-based, human; settings: for enhancement of cisplatin (words): BR1 ASO pretreatment, FIGS. 38, 50
Procedure: OLIGOs were introduced into cells with the use of Lipofectamine 2000 (LFA2K) (Invitrogen, Burlington, Ontario, Canada). OLIGOs were mixed with LFA2K at a ratio of 0.2 μg/ml per 10 nM OLIGO. The mixture was prepared at 11× the final concentration to which cells were exposed, so that 200 μL was added to 2 mL of medium in which cells were plated. After incubating at room temperature for 20 minutes, according to manufacturer's instructions, the OLIGOs were added to the cell medium. The OLIGO/LFA2K mix was then incubated (37° C.) on the cells for 4 hours, after which a second volume of medium was added. Cells were then incubated for 20 hours. Following this incubation, the OLIGO-containing medium was replaced with OLIGO-free medium.
For cells treated with the drug olaparib, for the purposes of determining whether inhibitory activity was enhanced by the OLIGO pretreatment, olaparib was added at this time, in concentrations of from 0.01 μM to 3 μM. At this point, replicate flasks from the OLIGO-treatment were used to enumerate cell content, as this varied among treatments over the initial 24-hour exposure. This was done so that the effect of treatment with olaparib could be ascertained based on the cell population that was present at the time of initiation of exposure to olaparib. Exposure to the olaparib was initiated by addition of 0.2-volume of a preparation of the drug, at 6× final concentration in growth medium, to the fresh drug-free medium on the cells (1 ml of drug into 5 ml of medium). Following a further 4-day incubation, the proliferation of the treated cells (fold-increase in cell number) was calculated as a percentage of that of control cells. Cell numbers were enumerated on an electronic particle counter (Beckman Coulter, Mississauga, ON). As indicated in Example 1, for the purpose of determining the anti-proliferative effect of antisense OLIGOs alone, the proliferation of cells treated with antisense OLIGOs was calculated as a percent of that of cells treated with an equivalent concentration of non-complementary control OLIGO (in this case OLIGO 32). However, for the purpose of determining the anti-proliferative effect of olaparib against antisense or non-complementary (control) OLIGO-treated cells, the proliferation was calculated as a percent of cells treated with the respective OLIGO.
These experiments were carried out essentially as described in Example 3, with the following changes. The drug tested was cisplatin instead of olaparib, and cisplatin was tested in concentrations ranging from 0.5 μM to 2 μM.
These experiments were carried out essentially as described in Example 3, with the following changes. The drug tested was melphalan in concentrations ranging from 2 μM to 10 μM.
These experiments were carried out essentially as described in Example 3, with the following changes. The drug tested was carboplatin at concentrations ranging from 5 μM to 40 μM.
These experiments were carried out essentially as described in Example 3, with the following changes. The drug tested was oxaliplatin was tested in concentrations ranging from 0.2 μM to 2.5 μM.
Cisplatin was added to the final concentration indicated, and as described in Example 3. Cells were incubated for 4 days, at which time cell number was counted. Proliferation was calculated as a percent of siRNA-treated, non-cisplatin-treated controls.

[3] = tested on: EPT1 prostate epithelial cells; assay: Veliparib after BR1 pretreatment; format: cell-based; settings: FIG. 37
[4] = tested on: TS mRNA; assay: RT-qPCR of TS mRNA in A549 cells after OLIGO transfection; format: cell-based, human; settings: 20 nM OLIGO, 24 hours post-transfection; FIG. 16
Procedure: Briefly, A549 cells seeded at a density of 2.0×10^5 per flask were transfected with 20 nM of OLIGO specific for each target or control OLIGO using Lipofectamine 2000 as the transfection reagent. Twenty four hours post-transfection mRNA was extracted and reverse transcribed into cDNA. RT-qPCR was performed for target mRNA levels using TaqMan reagents according to established protocols.

[5] = tested on: EP156T primary prostate epithelial cells; assay: Veliparib after BR1 pretreatment; format: cell-based; settings: FIG. 37
[6] = tested on: SKOV-3 cells; assay: Cell proliferation assay, ASO transfection and/or drug (cell counting); format: cell-based, human; settings: FIG. 49
Procedure: FIG. 24 illustrates that BRCA2 inhibition sensitizes ovarian cancer and breast cancer cell lines to olaparib treatment. SKOV-3 (A) and CaOV3 (B) cells were transfected with control ASO (•) or BRCA2 ASO (∘) and then treated with three different concentrations of olaparib. Proliferation was determined by cell counting 96 hours post-transfection (*p<0.05). C: BRCA2 mRNA levels were measured by qPCR 24 hours following BRCA2 ASO transfection in SKOV-3, CaOV3, 211 H and H2052 cell lines.
E: SKOV-3 cells were transfected with control or BRCA2 ASO and then treated with olaparib 24 hours post transfection. Ninety-six hours post transfection, cells were counted, plated, and re-transfected with control ASO or BRCA2 ASO and re-treated with olaparib. Cell counts were performed 96 hours post transfection (*p<0.05). […]
A: BRCA2-wild type SKOV-3 cells (black bars), […] MCF-7 cells (white bars), and BRCA2-mutated CAPAN-1 cells (grey bars) were treated simultaneously but separately with BRCA2 ASO (20 nM). […] Ninety-six hours post-transfection, cells were counted and proliferation determined (% of proliferation after control ASO treatment).
C: SKOV-3, MCF-7 and CAPAN-1 cells were treated with two different concentrations of olaparib for 96 hours. After drug treatment they were counted and proliferation was determined as a percent of that of vehicle-treated cells. […]

5′-guaucuCTTGACGTuccuua-3′ (GUAUCUCTTGACGTUCCUUA; gapmer, lower-case wings modified, type not given here) [BR1]
effect on antiproliferative activity of cisplatin [1]: enhances the antiproliferative activity of cisplatin | enhanced inhibition of proliferation by olaparib (% decrease in the IC50 value) ([2]; A549 cells, ASO pre-incubation, FIGS. 34, 35): up to 95% | enhancement of cisplatin (words) ([2]; A549 cells): enhances cisplatin | enhancement of cisplatin (words) ([2]; A549 cells, listed as BR-1): enhances the antiproliferative activity of cisplatin or melphalan | enhanced the anti-proliferative effect of olaparib ([2]; BR1 pretreatment, at a given concentration of olaparib, FIG. 2): over 40% | enhancement of veliparib ([2]; BR1 vs ODN 32, A549 cells, FIGS. 36, 37): enhances veliparib | enhancement of veliparib [3]: little or not at all | effect on TS mRNA level [4]: no significant effect on TS mRNA | enhancement of veliparib [5]: little or not at all | effect on antiproliferative activity of cisplatin [6]: enhances the antiproliferative activity of cisplatin
